Patent US20170081323A1 (priority 2015, published 2017)

test system: influenza A virus (IAV) A/Aichi/2/68 (H3N2); experiment: microbe, parasite or virus in culture; assay type: cell-based, influenza A virus A/Aichi/2/68 (H3N2) on MDCK cells; details: H3N2, MDCK, 48 h, read-out: CPE

Q: Which IC50 does the source give for `O=c1[nH]nc2ccc(-c3ccccc3Cl)c(Oc3ccccc3)n12` here?
A: > 50 µM

Q: Which IC50 does the source give for `O=C1NNC2CCCC(CCC3CC3)N12` (centres unmarked) here?
A: > 50 µM

Q: For `O=c1[nH]nc2ccc(-c3ccccc3Cl)c(OCC3CC3)n12`, which IC50 is on record?
A: > 50 µM

Q: How did the IC50 turn out when `O=c1[nH]nc2c(-c3ccccc3)cccn12` was run?
A: > 50 µM

Q: Which IC50 does the source give for `O=c1[nH]nc2cc(-c3ccccc3)ccn12` here?
A: > 50 µM

Q: How did the IC50 turn out when `O=c1[nH]nc2ccc(-c3cccc4ccccc34)cn12` was run?
A: > 50 µM

Q: How did the IC50 turn out when `O=c1[nH]nc2cccc(-c3ccccc3)n12` was run?
A: > 50 µM

Q: `O=c1[nH]nc2n1C(OCC1CC1)CCC2` (centres unmarked) was tested. Which IC50 did it give?
A: > 50 µM

Q: With `O=c1[nH]nc2ccc(-c3ccc(Cl)cc3)cn12` as the compound, how does the IC50 read?
A: > 50 µM

Q: For `O=c1[nH]nc2ccc(-c3cccc(Cl)c3)cn12`, which IC50 is on record?
A: > 50 µM

Q: With `COc1ccc(-c2ccc3n[nH]c(=O)n3c2)c(Cl)c1` as the compound, how does the IC50 read?
A: > 50 µM

Q: Which IC50 does the source give for `Cc1ccc(C)c(-c2ccc3n[nH]c(=O)n3c2)c1` here?
A: > 50 µM

Q: With `O=c1[nH]nc2ccc(Oc3ccccc3)cn12` as the compound, how does the IC50 read?
A: > 50 µM

Q: For `O=c1[nH]nc2ccc(-c3ccccc3Cl)cn12`, which IC50 is on record?
A: > 50 µM

Q: For `O=c1[nH]nc2ccc(Br)cn12`, which IC50 is on record?
A: > 50 µM

Q: Which IC50 does the source give for `O=c1[nH]nc2ccc(-c3ccc(-c4ccccc4)cc3)cn12` here?
A: > 50 µM

Q: `O=c1[nH]nc2ccc(-c3ccccc3)c(OCC3CC3)n12` was tested. Which IC50 did it give?
A: > 50 µM

Q: Which IC50 does the source give for `O=c1[nH]nc2ccc(-c3cccc(-c4ccccc4)c3)cn12` here?
A: > 50 µM

Q: With `O=c1[nH]nc2ccc(Br)c(Oc3ccccc3)n12` as the compound, how does the IC50 read?
A: > 50 µM

Q: `O=c1[nH]nc2ccc(-c3cccc(F)c3F)cn12` was tested. Which IC50 did it give?
A: > 50 µM

Q: `O=c1[nH]nc2cccc(-c3ncccn3)n12` was tested. Which IC50 did it give?
A: > 50 µM

Q: `O=c1[nH]nc2ccc(-c3ccccc3-c3cccc(F)c3)cn12` was tested. Which IC50 did it give?
A: > 50 µM

Q: For `O=c1[nH]nc2ccc(-c3cccc(F)c3)cn12`, which IC50 is on record?
A: > 50 µM

Q: `O=c1[nH]nc2cccc(Oc3ccccc3)n12` was tested. Which IC50 did it give?
A: > 50 µM

Q: Which IC50 does the source give for `O=c1[nH]nc2ccc(-c3ccccc3)cn12` here?
A: > 50 µM

Q: For `O=c1[nH]nc2cccc(C#CC3CC3)n12`, which IC50 is on record?
A: > 50 µM

Q: For `O=c1[nH]nc2ccc(-c3ccccc3-c3ccncc3)cn12`, which IC50 is on record?
A: > 50 µM

Q: `O=c1[nH]nc2ccc(-c3ccccc3-c3ccccc3)cn12` was tested. Which IC50 did it give?
A: > 50 µM

same assay, conditions: H3N2, MDCK, 48 h, read-out: CPE IC50

Q: Which IC50 does the source give for `O=c1[nH]nc2ccc(-c3cccc(-c4c(F)cccc4F)c3)cn12` here?
A: 34.9 µM
